Read-outs that look alike come from different tables or passages of the source.
Experiments:
[1] = molecular target: T1, human OATP1B1 transporter (Homo sapiens, UniProt Q9Y6L6); test: Uptake into OATP1B1 and empty vector transfected HEK293 cells; type: in vitro ADME; settings: for Uptake rate Mean: 2 min; for Uptake ratio: OATP1B1 vs control
T1 construct: expressed in transfected cells; host or cells: HEK293 (transient transfection)
T1 sequence (Q9Y6L6 1-691): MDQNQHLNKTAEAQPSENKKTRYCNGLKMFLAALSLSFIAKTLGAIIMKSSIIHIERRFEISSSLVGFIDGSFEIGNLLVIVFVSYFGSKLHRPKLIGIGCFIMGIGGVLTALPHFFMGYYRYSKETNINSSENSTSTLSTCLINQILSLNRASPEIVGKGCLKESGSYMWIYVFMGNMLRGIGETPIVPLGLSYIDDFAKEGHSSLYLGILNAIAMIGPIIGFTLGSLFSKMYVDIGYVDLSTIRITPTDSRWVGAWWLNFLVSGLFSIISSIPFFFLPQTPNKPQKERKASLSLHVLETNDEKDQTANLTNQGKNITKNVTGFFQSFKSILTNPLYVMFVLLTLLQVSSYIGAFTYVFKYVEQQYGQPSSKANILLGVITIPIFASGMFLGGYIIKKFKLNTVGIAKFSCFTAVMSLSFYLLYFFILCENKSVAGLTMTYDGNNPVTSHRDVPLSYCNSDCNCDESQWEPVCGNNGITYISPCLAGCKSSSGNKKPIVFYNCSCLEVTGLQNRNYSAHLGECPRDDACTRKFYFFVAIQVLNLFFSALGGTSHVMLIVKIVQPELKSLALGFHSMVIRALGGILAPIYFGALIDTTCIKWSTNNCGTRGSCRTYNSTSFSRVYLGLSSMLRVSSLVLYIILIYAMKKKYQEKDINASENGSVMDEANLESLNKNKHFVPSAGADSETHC
Experimental: Test compound (at 1 and 10 μM) was incubated with both SLC transporter-expressing HEK293 cells and control (empty vector) HEK293 cells for 2 min.

[2] = test system: NBXF CHP-212; test: 2D monolayer CellTiter-Blue viability, neuroblastoma CHP-212; type: cell-based; settings: 72 h
Experimental: (§1) Seventeen compounds, including mebendazole (Batch no. […] Efficacy of compounds was assessed using CellTiter-Blue® Cell Viability Assay. Anti-tumor activity is expressed as absolute and relative IC50 and IC70 values, calculated by non-linear regression analysis.

[3] = test system: NBXF SHEP; test: 2D monolayer CellTiter-Blue viability, neuroblastoma SHEP; type: cell-based; settings: 72 h
Experimental: as §1

[4] = test system: SXFS SK-LMS-1; test: 2D monolayer CellTiter-Blue viability, soft tissue sarcoma SK-LMS-1; type: cell-based; settings: 72 h
Experimental: as §1

[5] = test system: A2780; test: 2D monolayer CellTiter-Blue viability, ovarian cancer A2780; type: cell-based; settings: for Test/Control (%) at Drug Concentration: 72 h; for IC50: Homo sapiens
Experimental: (§2) Mebendazole was tested in vitro across a panel of 12 tumor cell lines of ovarian and renal cancer by using a 2D monolayer assay. […] OVXF 899L and RXF 486L are P-gp expressing, multidrug resistant cell lines.
(§3) Anti-tumor activity is expressed as absolute and relative IC50/70 values, calculated by 4-parameter non-linear curve fit.

[6] = test system: SK-OV-3; test: 2D monolayer CellTiter-Blue viability, ovarian cancer SK-OV-3; type: cell-based; settings: for IC50: Homo sapiens; for Test/Control (%) at Drug Concentration: 72 h
Experimental: as §2, §3

[7] = test system: RXF 1183L; test: 2D monolayer CellTiter-Blue viability, renal cancer RXF 1183L; type: cell-based; settings: for Test/Control (%) at Drug Concentration: 72 h
Experimental: as §2, §3

[8] = in vitro; settings: human, hepatocytes, t½
Experimental: Mebendazole (1 μM) was incubated with cryopreserved human hepatocytes for 60 min in the absence and presence of cimetidine at 30, 100 and 300 μM) and thiabendazole at 10, 30 and 100 μM and samples taken at the required time points. The amount of test compound remaining at each time point was analysed by LC-MS/MS. Appropriate control compounds were also incubated along with ethoxycoumarin, which was incubated in the absence and presence of cimetidine and thiabendazole.
The final incubation volume was 500 μL. Two control compounds were included, alongside appropriate vehicle control. A positive control compound, ethoxycoumarin, for CYP1A2 was included. The positive control compound was incubated without inhibitor and in the presence of each inhibitor. The reactions were stopped by transferring 50 μL of incubate to 100 μL acetonitrile containing internal standard at the appropriate time points (0, 5, 10, 20, 40 and 60 min). The termination plates were centrifuged at 2500 rpm at 4° C. for 30 min to precipitate the protein.

Uptake rate Mean ([1]; 1 μM, OATP1B1 HEK293 cells): 42.5 pmol/mg
Uptake ratio ([1]; 1 μM): 0.9
Uptake rate Mean ([1]; 1 μM, control (empty vector) HEK293 cells): 49.0 pmol/mg
Uptake rate Mean ([1]; 10 μM, OATP1B1 HEK293 cells): 426 pmol/mg
Uptake ratio ([1]; 10 μM): 0.9
Uptake rate Mean ([1]; 10 μM, control (empty vector) HEK293 cells): 461 pmol/mg
substrate of the human OATP1B1 transporter ([1]; 1 and 10 μM): not a substrate
IC50 ([5]; A2780, 72 h, read-out: Abs. IC50): 209 nM
IC50 ([5]; A2780, 72 h, read-out: Rel. IC50): 178 nM
IC50 ([6]; SK-OV-3, 72 h, read-out: Abs. IC50): 1200 nM
IC50 ([6]; SK-OV-3, 72 h, read-out: Rel. IC50): 476 nM
IC50 ([7]; RXF 1183, 72 h, read-out: Abs. IC50): 925 nM
IC50 ([7]; RXF 1183, 72 h, read-out: Rel. IC50): 1310 nM
half-life at 1 μM [8]: 1.54 h
SMILES: COC(=O)Nc1nc2ccc(C(=O)c3ccccc3)cc2[nH]1 [Mebendazole, methyl N-(6-benzoyl-1H-benzimidazol-2-yl)carbamate]
Test/Control (%) at Drug Concentration ([2]; CHP-212, 1.0E+00 μM): 14%
Test/Control (%) at Drug Concentration ([2]; CHP-212, 1.0E+01 μM): 23%
Test/Control (%) at Drug Concentration ([2]; CHP-212, 1.0E+02 μM): 19%
Test/Control (%) at Drug Concentration ([2]; CHP-212, 1.0E−01 μM): 59%
Test/Control (%) at Drug Concentration ([2]; CHP-212, 1.0E−02 μM): 98%
Test/Control (%) at Drug Concentration ([2]; CHP-212, 3.2E+00 μM): 20%
Test/Control (%) at Drug Concentration ([2]; CHP-212, 3.2E+01 μM): 27%
Test/Control (%) at Drug Concentration ([2]; CHP-212, 3.2E−01 μM): 19%
Test/Control (%) at Drug Concentration ([2]; CHP-212, 3.2E−02 μM): 88%
Test/Control (%) at Drug Concentration ([2]; CHP-212, 3.2E−03 μM): 95%
Test/Control (%) at Drug Concentration ([3]; 1.0E+00 μM): 20%
Test/Control (%) at Drug Concentration ([3]; 1.0E+01 μM): 20%
Test/Control (%) at Drug Concentration ([3]; 1.0E+02 μM): 16%
Test/Control (%) at Drug Concentration ([3]; 1.0E−01 μM): 72%
Test/Control (%) at Drug Concentration ([3]; 1.0E−02 μM): 72%
Test/Control (%) at Drug Concentration ([3]; 3.2E+00 μM): 27%
Test/Control (%) at Drug Concentration ([3]; 3.2E+01 μM): 18%
Test/Control (%) at Drug Concentration ([3]; 3.2E−01 μM): 47%
Test/Control (%) at Drug Concentration ([3]; 3.2E−02 μM): 68%
Test/Control (%) at Drug Concentration ([3]; 3.2E−03 μM): 72%
Test/Control (%) at Drug Concentration ([4]; SK-LMS-1, 1.0E+00 μM): 27%
Test/Control (%) at Drug Concentration ([4]; SK-LMS-1, 1.0E+01 μM): 9%
Test/Control (%) at Drug Concentration ([4]; SK-LMS-1, 1.0E+02 μM): 3%
Test/Control (%) at Drug Concentration ([4]; SK-LMS-1, 1.0E−01 μM): 80%
Test/Control (%) at Drug Concentration ([4]; SK-LMS-1, 1.0E−02 μM): 90%
Test/Control (%) at Drug Concentration ([4]; SK-LMS-1, 3.2E+00 μM): 16%
Test/Control (%) at Drug Concentration ([4]; SK-LMS-1, 3.2E+01 μM): 5%
Test/Control (%) at Drug Concentration ([4]; SK-LMS-1, 3.2E−01 μM): 45%
Test/Control (%) at Drug Concentration ([4]; SK-LMS-1, 3.2E−02 μM): 83%
Test/Control (%) at Drug Concentration ([4]; SK-LMS-1, 3.2E−03 μM): 101%
Test/Control (%) at Drug Concentration ([5]; A2780, 1.0E+00 μM): 26%
Test/Control (%) at Drug Concentration ([5]; A2780, 1.0E−01 μM): 91%
Test/Control (%) at Drug Concentration ([5]; A2780, 1.0E−02 μM): 96%
Test/Control (%) at Drug Concentration ([5]; A2780, 1.0E−03 μM): 95%
Test/Control (%) at Drug Concentration ([5]; A2780, 1.0E−04 μM): 115%
Test/Control (%) at Drug Concentration ([5]; A2780, 3.2E+00 μM): 13%
Test/Control (%) at Drug Concentration ([5]; A2780, 3.2E−01 μM): 30%
Test/Control (%) at Drug Concentration ([5]; A2780, 3.2E−02 μM): 97%
Test/Control (%) at Drug Concentration ([5]; A2780, 3.2E−03 μM): 99%
Test/Control (%) at Drug Concentration ([5]; A2780, 3.2E−04 μM): 109%
Abs. IC70 ([5]; A2780, 72 h): 323 nM
Rel. IC70 ([5]; A2780, 72 h): 231 nM
Bot. (%) ([5]; A2780, 72 h, curve fit): 19%
Top (%) ([5]; A2780, 72 h, curve fit): 102%
Test/Control (%) at Drug Concentration ([6]; SK-OV-3, 1.0E+00 μM): 52%
Test/Control (%) at Drug Concentration ([6]; SK-OV-3, 1.0E−01 μM): 99%
Test/Control (%) at Drug Concentration ([6]; SK-OV-3, 1.0E−02 μM): 98%
Test/Control (%) at Drug Concentration ([6]; SK-OV-3, 1.0E−03 μM): 100%
Test/Control (%) at Drug Concentration ([6]; SK-OV-3, 1.0E−04 μM): 94%
Test/Control (%) at Drug Concentration ([6]; SK-OV-3, 3.2E+00 μM): 45%
Test/Control (%) at Drug Concentration ([6]; SK-OV-3, 3.2E−01 μM): 84%
Test/Control (%) at Drug Concentration ([6]; SK-OV-3, 3.2E−02 μM): 102%
Test/Control (%) at Drug Concentration ([6]; SK-OV-3, 3.2E−03 μM): 101%
Test/Control (%) at Drug Concentration ([6]; SK-OV-3, 3.2E−04 μM): 104%
Abs. IC70 ([6]; SK-OV-3, 72 h): >3200 nM
Rel. IC70 ([6]; SK-OV-3, 72 h): 679 nM
Bot. (%) ([6]; SK-OV-3, 72 h, curve fit): 44%
Top (%) ([6]; SK-OV-3, 72 h, curve fit): 100%
Test/Control (%) at Drug Concentration ([7]; RXF 1183, 1.0E+00 μM): 54%
Test/Control (%) at Drug Concentration ([7]; RXF 1183, 1.0E−01 μM): 79%
Test/Control (%) at Drug Concentration ([7]; RXF 1183, 1.0E−02 μM): 91%
Test/Control (%) at Drug Concentration ([7]; RXF 1183, 1.0E−03 μM): 93%
Test/Control (%) at Drug Concentration ([7]; RXF 1183, 1.0E−04 μM): 91%
Test/Control (%) at Drug Concentration ([7]; RXF 1183, 3.2E+00 μM): 32%
Test/Control (%) at Drug Concentration ([7]; RXF 1183, 3.2E−01 μM): 58%
Test/Control (%) at Drug Concentration ([7]; RXF 1183, 3.2E−02 μM): 80%
Test/Control (%) at Drug Concentration ([7]; RXF 1183, 3.2E−03 μM): 88%
Test/Control (%) at Drug Concentration ([7]; RXF 1183, 3.2E−04 μM): 88%
Abs. IC70 ([7]; RXF 1183, 72 h): >3200 nM
Rel. IC70 ([7]; RXF 1183, 72 h): >3200 nM
Bot. (%) ([7]; RXF 1183, 72 h, curve fit): 0%
Top (%) ([7]; RXF 1183, 72 h, curve fit): 91%

From patent US20220125765A1, “PHARMACEUTICAL COMBINATIONS COMPRISING MEBENDAZOLE AND A STRONG OR MODERATE CYP1A2 INHIBITOR” (ZEPHAPHARM LTD, priority 2019, published 2022)
